Values quoted from earlier work in patent US10898467B2, “Veterinary formulations” (BOEHRINGER INGELHEIM ANIMAL HEALTH USA INC., priority 2015, dated 2021).

Settings: beagle dogs, spot-on, 14C radiolabeled drug

Structure (SMILES): N#Cc1nn(-c2c(Cl)cc(C(F)(F)F)cc2Cl)c(N)c1[S+]([O-])C(F)(F)F (stereo not shown) [fipronil, 1-(2,6-Cl2-4-CF3phenyl)-3-CN-4-(SO—CF3)-5-NH2pyrazole]
- Time for which fipronil was persistently detected in the whole skin after treatment: up to 56 days
